From ChEMBL document CHEMBL3880428, “Sulfonamide derivative having PGD2 receptor antagonistic activity” (2012)

What was measured:
Type in all cases: cell-based
HEK293 [1] = assay: Selectivity ratio of IC50 for PGD2 receptor in human platelets to IC50 for human EP1 receptor expressed in HEK293 cells by cAMP accumulation assay
HEK293 [2] = assay: Selectivity ratio of IC50 for PGD2 receptor in human platelets to IC50 for human EP2 receptor expressed in HEK293 cells by cAMP accumulation assay
HEK293 [3] = assay: Selectivity ratio of IC50 for PGD2 receptor in human platelets to IC50 for human EP3 receptor expressed in HEK293 cells by cAMP accumulation assay
HEK293 [4] = assay: Selectivity ratio of IC50 for PGD2 receptor in human platelets to IC50 for human EP4 receptor expressed in HEK293 cells by cAMP accumulation assay
HEK293 [5] = assay: Selectivity ratio of IC50 for PGD2 receptor in human platelets to IC50 for human FP receptor expressed in HEK293 cells by cAMP accumulation assay
HEK293 [6] = assay: Selectivity ratio of IC50 for PGD2 receptor in human platelets to IC50 for human TP receptor expressed in HEK293 cells by cAMP accumulation assay
HEK293 [7] = assay: Selectivity ratio of IC50 for PGD2 receptor in human platelets to IC50 for human IP receptor expressed in HEK293 cells by cAMP accumulation assay

Measured: Ratio IC50

CC(C)Oc1ccc(S(=O)(=O)N2CCN(c3ccc(C(=O)NC4CC4)c(OCC(=O)O)c3)CC2)cc1
> 20: all assays above

CC(C)Oc1ccc(S(=O)(=O)N2CCN(c3cccc(OCC(=O)O)n3)CC2)cc1
> 20: all assays above

CNC(=O)c1ccc(N2CCN(S(=O)(=O)c3ccc(OC(C)C)cc3)CC2)cc1OCC(=O)O
> 20: all assays above

CC(C)Oc1ccc(S(=O)(=O)N2CCN(c3ccc(Cl)c(OCC(=O)O)c3)CC2)cc1
> 20: all assays above

CC(C)Sc1ccc(S(=O)(=O)N2CCN(c3ccc(Cl)c(OCC(=O)O)c3)CC2)cc1
> 20: all assays above

CC(C)OC(=O)Nc1ccc(N2CCN(S(=O)(=O)c3ccc(OC(C)C)cc3)CC2)cc1OCC(=O)O
> 20: all assays above

CC(C)Oc1ccc(S(=O)(=O)N2CCN(c3ccc(C(=O)Nc4nncs4)c(OCC(=O)O)c3)CC2)cc1
> 20: all assays above

CC(C)Oc1ccc(S(=O)(=O)N2CCN(c3ccc(C(=O)NCc4ccccn4)c(OCC(=O)O)c3)CC2)cc1
> 20: all assays above

CC(C)Oc1ccc(S(=O)(=O)N2CCN(c3ccc(Cl)c(OCC(=O)O)c3)CC2C)cc1 (stereo not drawn)
> 20: all assays above

CC(C)Oc1ccc(S(=O)(=O)N2CCN(c3cc(F)cc(OCC(=O)O)c3)CC2)cc1
> 20: all assays above

CC(C)Oc1ccc(S(=O)(=O)N2CCN(c3ccc(OCc4ccccc4)c(OCC(=O)O)c3)CC2)cc1
> 20: all assays above

CC(C)Oc1ccc(S(=O)(=O)N2CCN(c3cc(Cl)cc(OCC(=O)O)c3)CC2)cc1
> 20: all assays above

CC(C)Oc1ccc(S(=O)(=O)N2CCN(c3ccc(NC(=O)c4ccccn4)c(OCC(=O)O)c3)CC2)cc1
> 20: all assays above

CC(C)Oc1ccc(S(=O)(=O)N2CCN(c3ccc(Oc4ccccc4)c(OCC(=O)O)c3)CC2)cc1
> 20: all assays above

CC(C)Oc1ccc(S(=O)(=O)N2CCN(c3ccc(C(=O)Nc4ccn(C)n4)c(OCC(=O)O)c3)CC2)cc1
> 20: all assays above

CCCNC(=O)c1ccc(N2CCN(S(=O)(=O)c3ccc(OC(C)C)cc3)CC2)cc1OCC(=O)O
> 20: all assays above

CC(C)Oc1ccc(S(=O)(=O)N2CCN(c3ccc(C(=O)Nc4nccs4)c(OCC(=O)O)c3)CC2)cc1
> 20: all assays above

CC(C)Oc1ccc(S(=O)(=O)N2CCN(c3ccc(C(=O)Nc4ccccc4)c(OCC(=O)O)c3)CC2)cc1
> 20: all assays above

CC(C)Oc1ccc(S(=O)(=O)N2CCN(c3ccc([N+](=O)[O-])c(NCC(=O)O)c3)CC2)cc1
> 20: all assays above
